# Measurements taken from ChEMBL document CHEMBL4049459, “1,4,5-Trisubstituted Imidazole-Based p53-MDM2/MDMX Antagonists with Aliphatic Linkers for Conjugation with Biological Carriers” (J Med Chem, 2017).
# Activity calls are given as the source filed them. The calls are words filed in the database; no cut-off is given here.
# Tests used:
# SAOS-2 = test: cells; conditions: Homo sapiens, SAOS-2, 24 h
# Description: Cytotoxicity against p53 deficient human Saos2 cells assessed as cell growth inhibition after 24 hrs by MTT assay
# U2OS [1] = test: Cell cycle arrest in wild type p53 expressing human U2OS cells assessed as decrease in accumulation at S phase at 10 uM after 24 hrs by propidium iodide-based FACS analysis; assay type: functional
# U2OS [2] = test: cells; conditions: Homo sapiens, 24 h
# Description: Cytotoxicity against wild type p53 expressing human U2OS cells assessed as cell growth inhibition after 24 hrs by MTT assay
# U2OS [3] = test: Cell cycle arrest in wild type p53 expressing human U2OS cells assessed as decrease in accumulation at S phase at 5 uM after 24 hrs by propidium iodide-based FACS analysis; assay type: functional
# U2OS [4] = test: Cell cycle arrest in wild type p53 expressing human U2OS cells assessed as increase in accumulation at G1 phase at 10 uM after 24 hrs by propidium iodide-based FACS analysis; assay type: functional
# U2OS [5] = test: Cell cycle arrest in wild type p53 expressing human U2OS cells assessed as increase in accumulation at G1 phase at 5 uM after 24 hrs by propidium iodide-based FACS analysis; assay type: functional
# [6] = Selectivity ratio of IC50 for human Saos2 cells to IC50 for human U2OS cells
# U2OS [7] = test: Cell cycle arrest in wild type p53 expressing human U2OS cells assessed as increase in accumulation at G1 phase at 1 uM after 24 hrs by propidium iodide-based FACS analysis; assay type: functional
# [8] = target: E3 ubiquitin-protein ligase Mdm2 (Homo sapiens) (UniProt Q00987); test: Inhibition of p53-MDM2 interaction in human HCT116 cells assessed as p53 activation by measuring increase in p21 expression at 1 uM after 24 hrs by Western blot analysis; assay type: cell-based
# Sequence of E3 ubiquitin-protein ligase Mdm2 (Homo sapiens) (Q00987 whole entry, looked up): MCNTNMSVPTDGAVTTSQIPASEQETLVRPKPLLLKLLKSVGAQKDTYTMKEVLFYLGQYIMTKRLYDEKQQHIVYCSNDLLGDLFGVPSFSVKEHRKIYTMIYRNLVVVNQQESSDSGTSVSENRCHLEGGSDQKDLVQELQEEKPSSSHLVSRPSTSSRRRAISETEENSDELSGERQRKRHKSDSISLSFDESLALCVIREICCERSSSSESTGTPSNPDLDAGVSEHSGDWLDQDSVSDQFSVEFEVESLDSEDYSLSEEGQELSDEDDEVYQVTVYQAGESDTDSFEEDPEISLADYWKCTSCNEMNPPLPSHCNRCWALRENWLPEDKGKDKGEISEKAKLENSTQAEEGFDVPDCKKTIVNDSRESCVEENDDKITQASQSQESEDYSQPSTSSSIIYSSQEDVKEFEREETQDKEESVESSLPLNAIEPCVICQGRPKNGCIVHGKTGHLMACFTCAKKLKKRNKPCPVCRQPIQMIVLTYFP
# U2OS [9] = test: Cell cycle arrest in wild type p53 expressing human U2OS cells assessed as decrease in accumulation at S phase at 1 uM after 24 hrs by propidium iodide-based FACS analysis; assay type: functional
# [10] = target: E3 ubiquitin-protein ligase Mdm2 (Homo sapiens) (UniProt Q00987); test: Inhibition of p53-MDM2 interaction in human U2OS cells assessed as p53 activation by measuring increase in p21 expression at 1 uM after 24 hrs by Western blot analysis; assay type: cell-based
# [11] = target: E3 ubiquitin-protein ligase Mdm2 (Homo sapiens) (UniProt Q00987); test: Inhibition of p53-MDM2 interaction in human U2OS cells assessed as p53 activation by measuring p21 accumulation at 1 uM after 7 hrs by Western blot analysis; assay type: cell-based
# [12] = target: E3 ubiquitin-protein ligase Mdm2 (Homo sapiens) (UniProt Q00987); test: Inhibition of p53-MDM2 interaction in human HCT116 cells assessed as p53 activation by measuring increase in MDM2 expression at 1 uM after 7 hrs by Western blot analysis; assay type: cell-based
# [13] = target: E3 ubiquitin-protein ligase Mdm2 (Homo sapiens) (UniProt Q00987); test: Inhibition of p53-MDM2 interaction in human U2OS cells assessed as p53 accumulation at 1 uM after 7 hrs by Western blot analysis; assay type: cell-based
# [14] = target: E3 ubiquitin-protein ligase Mdm2 (Homo sapiens) (UniProt Q00987); test: Inhibition of p53-MDM2 interaction in human U2OS cells assessed as p53 activation by measuring increase in MDM2 expression at 1 uM after 7 hrs by Western blot analysis; assay type: cell-based
Structure (SMILES),IC50 (SAOS-2) [µM],IC50 (U2OS [2]) [µM],Activity (U2OS [1]),Activity (U2OS [3]),Activity (U2OS [4]),Activity (U2OS [5]),further results
O=C(O)c1[nH]c2cc(Cl)ccc2c1-c1c(-c2ccc(F)cc2)ncn1Cc1ccc(Cl)cc1,55.8,17.4,Active,,Active,,
O=C(O)CCC(=O)NCCCCCCOC(=O)c1[nH]c2cc(Cl)ccc2c1-c1c(-c2ccc(F)cc2)ncn1Cc1ccc(Cl)cc1,,,,Active,,Active,
COc1ccc(C2=N[C@H](c3ccc(Cl)cc3)[C@H](c3ccc(Cl)cc3)N2C(=O)N2CCNC(=O)C2)c(OC(C)C)c1,20.2,2.66,,,,,Ratio IC50 [6]: 7.59
COc1cc(C(=O)O)ccc1NC(=O)[C@@H]1N[C@@H](CC(C)(C)C)[C@](C#N)(c2ccc(Cl)cc2F)[C@H]1c1cccc(Cl)c1F,,,,,,,Activity (U2OS [7]): Active; inhibition [8]: Active; Activity (U2OS [9]): Active; inhibition [10]: Active; inhibition [11]: Active; inhibition [12]: Active; inhibition [13]: Active; inhibition [14]: Active
O=C(O)CCC(=O)OCCCCCCOC(=O)c1[nH]c2cc(Cl)ccc2c1-c1c(-c2ccc(F)cc2)ncn1Cc1ccc(Cl)cc1,,,Active,,Active,,

# Continued, in another order:
IC50 (SAOS-2) [µM],IC50 (U2OS [2]) [µM],Structure (SMILES),Activity (U2OS [1]),Activity (U2OS [3]),Activity (U2OS [4]),Activity (U2OS [5]),further results
7.15,3.67,O=C(NCCN1CCOCC1)c1[nH]c2cc(Cl)ccc2c1-c1c(-c2ccc(F)cc2)ncn1Cc1ccc(Cl)cc1,Active,Active,Active,Active,
11.7,7.27,O=C(OCCN1CCOCC1)c1[nH]c2cc(Cl)ccc2c1-c1c(-c2ccc(F)cc2)ncn1Cc1ccc(Cl)cc1,,Active,,Active,
